target: human PD-L1 (Homo sapiens (Human), UniProt Q9NZQ7); assay: T cell activation luciferase reporter cell culture system (T Cell Activation Assay); assay type: cell-based; settings: luciferase reporter assay; PD-L1 aAPC/CHO-K1 cells with PD-1 effector Jurkat T cells
Sequence (Q9NZQ7 19-290): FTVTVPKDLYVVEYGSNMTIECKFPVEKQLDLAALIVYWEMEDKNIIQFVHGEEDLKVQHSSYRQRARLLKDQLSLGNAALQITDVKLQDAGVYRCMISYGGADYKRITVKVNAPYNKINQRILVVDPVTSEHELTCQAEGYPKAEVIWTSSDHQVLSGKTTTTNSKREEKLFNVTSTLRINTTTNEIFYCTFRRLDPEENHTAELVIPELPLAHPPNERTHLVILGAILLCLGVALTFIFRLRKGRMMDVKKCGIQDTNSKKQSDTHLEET

EC50 [nM]	Structure (SMILES)
≥ 10000	COc1cc(-c2nccc(-c3cccc4c3CCC[C@@H]4Nc3nc(OC)c(CNC[C@@H]4CCC(=O)N4)cc3C(F)(F)F)c2Cl)ccc1CNC[C@@H]1CCC(=O)N1 [Example 710, (S)-5-((((6-(((S)-5-(3-Chloro-2-(3-methoxy-4-(((((S)-5-oxopyrrolidin-2-yl)methyl)amino)methyl)phenyl)pyridin-4-yl)-1,2,3,4-tetrahydronaphthalen-1-yl)amino)-2-methoxy-5-(trifluoromethyl)pyridin-3-yl)methyl)amino)methyl)pyrrolidin-2-one]
195	COc1cc(-c2ncnc(-c3cccc(-c4ccc(CNCCO)c(OC)n4)c3Cl)c2Cl)ccc1CN1CC2(CNC(=O)C2)C1 [Example 711, 2-(4-(5-Chloro-6-(2-chloro-3-(5-(((2-hydroxyethyl)amino)methyl)-6-methoxypyridin-2-yl)phenyl)pyrimidin-4-yl)-2-methoxybenzyl)-2,6-diazaspiro[3.4]octan-7-one]
130	COc1nc(-c2cccc(-c3ccnc(-c4cc(OC)c5nc(CNCCCF)nn5c4)c3Cl)c2Cl)ccc1CNC1CCN(C(C)=O)CC1 [Example 713, 1-(4-(((6-(2-Chloro-3-(3-chloro-2-(2-(((3-fluoropropyl)amino)methyl)-8-methoxy-[1,2,4]triazolo[1,5-a]pyridin-6-yl)pyridin-4-yl)phenyl)-2-methoxypyridin-3-yl)methyl)amino)piperidin-1-yl)ethan-1-one]
581	COc1nc(-c2cccc(-c3ccnc(-c4cc(OC)c5nc(CN(C)CCO)nn5c4)c3Cl)c2Cl)ccc1CNC1CCN(C(C)=O)CC1 [Example 715, 1-(4-(((6-(2-Chloro-3-(3-chloro-2-(2-(((2-hydroxyethyl)(methyl)amino)methyl)-8-methoxy-[1,2,4]triazolo[1,5-a]pyridin-6-yl)pyridin-4-yl)phenyl)-2-methoxypyridin-3-yl)methyl)amino)piperidin-1-yl)ethan-1-one]
≥ 10000	COc1cc(-c2ncnc(-c3cccc(-c4ccc(CNC5CCN(C(C)=O)CC5)c(OC)n4)c3Cl)c2OC)ccc1CNC1CCN(C(C)=O)CC1 [Example 717, 1-(4-(((6-(3-(6-(4-(((1-Acetylpiperidin-4-yl)amino)methyl)-3-methoxyphenyl)-5-methoxypyrimidin-4-yl)-2-chlorophenyl)-2-methoxypyridin-3-yl)methyl)amino)piperidin-1-yl)ethan-1-one]
≥ 10000	COc1cc(-c2ncnc(-c3cccc(-c4ccc(CN5CC6(CNC(=O)C6)C5)c(OC)n4)c3Cl)c2OC)ccc1CN1CC2(CNC(=O)C2)C1 [Example 727, 2-((6-(2-Chloro-3-(5-methoxy-6-(3-methoxy-4-((7-oxo-2,6-diazaspiro[3.4]octan-2-yl)methyl)phenyl)pyrimidin-4-yl)phenyl)-2-methoxypyridin-3-yl)methyl)-2,6-diazaspiro[3.4]octan-7-one]
≥ 10000	COc1cc(-c2ncnc(-c3cccc(-c4ccc(CNCCO)c(OC)n4)c3Cl)c2OC)ccc1CNCCO [Example 728, 2-((4-(6-(2-Chloro-3-(5-(((2-hydroxyethyl)amino)methyl)-6-methoxypyridin-2-yl)phenyl)-5-methoxypyrimidin-4-yl)-2-methoxybenzyl)amino)ethan-1-ol]
≥ 10000	CNCc1ccc(-c2ccnc(-c3cccc4c3CCC[C@@H]4Nc3nc(OC)c(CNC)cc3C(F)(F)F)c2Cl)nc1OC [Example 732, (S)—N-(5-(3′-Chloro-6-methoxy-5-((methylamino)methyl)-[2,4′-bipyridin]-2′-yl)-1,2,3,4-tetrahydronaphthalen-1-yl)-6-methoxy-5-((methylamino)methyl)-3-(trifluoromethyl)pyridin-2-amine]
28.6	COc1cc(-c2nccc(-c3cccc(NC(=O)c4ccc(CNCCO)cn4)c3Cl)c2Cl)ccc1CNC1CCN(C(C)=O)CC1 [Example 733, N-(3-(2-(4-(((1-Acetylpiperidin-4-yl)amino)methyl)-3-methoxyphenyl)-3-chloropyridin-4-yl)-2-chlorophenyl)-5-(((2-hydroxyethyl)amino)methyl)picolinamide]
≥ 10000	COc1cc(-c2ncnc(-c3cccc(-c4ccc(CNC5CCOCC5)c(OC)n4)c3Cl)c2OC)ccc1CNC1CCOCC1 [Example 734, N-((6-(2-Chloro-3-(5-methoxy-6-(3-methoxy-4-(((tetrahydro-2H-pyran-4-yl)amino)methyl)phenyl)pyrimidin-4-yl)phenyl)-2-methoxypyridin-3-yl)methyl)tetrahydro-2H-pyran-4-amine]
≥ 10000	COc1cc(-c2nccc(-c3cccc4c3CCC[C@@H]4Nc3nc(OC)c(CNC[C@H](C)O)cc3C(F)(F)F)c2Cl)ccc1CNC[C@@H]1CCC(=O)N1 [Example 736, (S)-5-(((4-(3-Chloro-4-((S)-5-((5-((((S)-2-hydroxypropyl)amino)methyl)-6-methoxy-3-(trifluoromethyl)pyridin-2-yl)amino)-5,6,7,8-tetrahydronaphthalen-1-yl)pyridin-2-yl)-2-methoxybenzyl)amino)methyl)pyrrolidin-2-one]
109	COc1cc(-c2ncnc(-c3cccc(-c4ccc(CN[C@H]5C[C@@H](O)C5)c(OC)n4)c3Cl)c2Cl)ccc1CN1CC2(CNC(=O)C2)C1 [Example 737, 2-(4-(5-Chloro-6-(2-chloro-3-(5-((((1s,3s)-3-hydroxycyclobutyl)amino)methyl)-6-methoxypyridin-2-yl)phenyl)pyrimidin-4-yl)-2-methoxybenzyl)-2,6-diazaspiro[3.4]octan-7-one]
272	COc1nc(-c2nccc(-c3cccc(NC(=O)c4cn(C)c(=O)n(C)c4=O)c3Cl)c2Cl)ccc1CNC[C@@H]1CCC(=O)N1 [Example 738, (S)—N-(2-Chloro-3-(3-chloro-6′-methoxy-5′-((((5-oxopyrrolidin-2-yl)methyl)amino)methyl)-[2,2′-bipyridin]-4-yl)phenyl)-1,3-dimethyl-2,4-dioxo-1,2,3,4-tetrahydropyrimidine-5-carboxamide]
1850	COc1nc(-c2nccc(-c3cccc(NC(=O)c4cn(C)c(=O)n(C)c4=O)c3Cl)c2Cl)ccc1CNC[C@H](C)O [Example 739, (S)—N-(2-Chloro-3-(3-chloro-5′-(((2-hydroxypropyl)amino)methyl)-6′-methoxy-[2,2′-bipyridin]-4-yl)phenyl)-1,3-dimethyl-2,4-dioxo-1,2,3,4-tetrahydropyrimidine-5-carboxamide]
80.4	COc1cc(-c2ncnc(-c3cccc(-c4ccc(CN[C@H]5C[C@H](O)C5)c(OC)n4)c3Cl)c2Cl)ccc1CN1CC2(CNC(=O)C2)C1 [Example 740]
≥ 10000	CNCc1ccc(-c2nccc(-c3cccc4c3CCC[C@@H]4Nc3nc(OC)c(CNC)cc3C(F)(F)F)c2Cl)cc1OC [Example 741, (S)—N-(5-(3-Chloro-2-(3-methoxy-4-((methylamino)methyl)phenyl)pyridin-4-yl)-1,2,3,4-tetrahydronaphthalen-1-yl)-6-methoxy-5-((methylamino)methyl)-3-(trifluoromethyl)pyridin-2-amine]
28.6	COc1cc(-c2ncnc(-c3cccc(-c4ccc(CNC[C@@H]5CCC(=O)N5)c(OC)n4)c3Cl)c2Cl)ccc1CN1CC2(CNC(=O)C2)C1 [Example 742, (S)-2-(4-(5-Chloro-6-(2-chloro-3-(6-methoxy-5-((((5-oxopyrrolidin-2-yl)methyl)amino)methyl)pyridin-2-yl)phenyl)pyrimidin-4-yl)-2-methoxybenzyl)-2,6-diazaspiro[3.4]octan-7-one]
≥ 10000	COc1cc(-c2ncnc(-c3cccc(-c4ccc(CN5CC6(CCC(=O)N6)C5)c(OC)n4)c3Cl)c2OC)ccc1CN1CC2(CCC(=O)N2)C1 [Example 743, 2-((6-(2-Chloro-3-(5-methoxy-6-(3-methoxy-4-((6-oxo-2,5-diazaspiro[3.4]octan-2-yl)methyl)phenyl)pyrimidin-4-yl)phenyl)-2-methoxypyridin-3-yl)methyl)-2,5-diazaspiro[3.4]octan-6-one]
154	COc1cc(-c2nccc(-c3cccc(NC(=O)c4ccc(CNCCO)cn4)c3C)c2Cl)ccc1CN1CC2(CNC(=O)C2)C1 [Example 744, N-(3-(3-Chloro-2-(3-methoxy-4-((7-oxo-2,6-diazaspiro[3.4]octan-2-yl)methyl)phenyl)pyridin-4-yl)-2-methylphenyl)-5-(((2-hydroxyethyl)amino)methyl)picolinamide]
825	COc1cc(-c2nccc(-c3cccc(NC(=O)c4ccc(CNC[C@@H]5CCC(=O)N5)cn4)c3C)c2Cl)ccc1CNC1CCN(C(C)=O)CC1 [Example 747, (S)—N-(3-(2-(4-(((1-acetylpiperidin-4-yl)amino)methyl)-3-methoxyphenyl)-3-chloropyridin-4-yl)-2-methylphenyl)-5-((((5-oxopyrrolidin-2-yl)methyl)amino)methyl)picolinamide]
1000	COc1cc(-c2nccc(-c3cccc(NC(=O)c4ccc(CNC[C@@H]5CCC(=O)N5)cn4)c3C)c2Cl)ccc1CNC1CCOCC1 [Example 748, (S)—N-(3-(3-chloro-2-(3-methoxy-4-(((tetrahydro-2H-pyran-4-yl)amino)methyl)phenyl)pyridin-4-yl)-2-methylphenyl)-5-((((5-oxopyrrolidin-2-yl)methyl)amino)methyl)picolinamide]
703	COc1cc(-c2nccc(-c3cccc(NC(=O)c4ccc(CNC[C@@H]5CCC(=O)N5)cn4)c3C)c2Cl)ccc1CNCCO [Example 750, (S)—N-(3-(3-Chloro-2-(4-(((2-hydroxyethyl)amino)methyl)-3-methoxyphenyl)pyridin-4-yl)-2-methylphenyl)-5-((((5-oxopyrrolidin-2-yl)methyl)amino)methyl)picolinamide]
5.68	CNCc1ccc(C(=O)Nc2cccc(-c3ccnc(-c4ccc(CNC[C@@H]5CCC(=O)N5)c(OC)c4)c3Cl)c2Cl)nc1 [Example 751, (S)—N-(2-Chloro-3-(3-chloro-2-(3-methoxy-4-((((5-oxopyrrolidin-2-yl)methyl)amino)methyl)phenyl)pyridin-4-yl)phenyl)-5-((methylamino)methyl)picolinamide]
1030	COc1cc(-c2nccc(-c3cccc(NC(=O)c4ccc(C(=O)O)cn4)c3Cl)c2Cl)ccc1CNC[C@@H]1CCC(=O)N1 [Example 752, (S)-6-((2-Chloro-3-(3-chloro-2-(3-methoxy-4-((((5-oxopyrrolidin-2-yl)methyl)amino)methyl)phenyl)pyridin-4-yl)phenyl)carbamoyl)nicotinic acid]
